The values that follow come from BindingDB's records for doi:10.1021/jm00124a018 (Institute of Cancer Research, 1989).

SMILES strings stand for the structures.

The assay addresses Thymidylate synthase (Mus musculus, L1210). Description: Inhibitory concentration of compound to inhibit Thymidylate synthase (TS) in L1210 cells at conc. of 200 uM.

`CCN(Cc1ccc2nc[nH]c(=O)c2c1)c1ccc(C(=O)NC(CCC(=O)O)C(=O)O)cc1` (configuration not stated) had an IC50 of 520 nM.

As to `CCN(Cc1ccc2nc(N)[nH]c(=O)c2c1)c1ccc(C(=O)NC(CCC(=O)O)C(=O)O)cc1` (configuration not stated), the IC50 was determined as 60 nM.
